Laboratory results reported in US20160235781A1, “DIURETIC INDUCED ALTERATIONS OF PLASMA VOLUME” (MAST THERAPEUTICS, INC., priority 2013, published 2016).

Test: Example 2: diuretic induced hemo-concentration patient, transthoracic echocardiography and body weight
Assay type: in vivo, human
Protocol: A person weighing 180 pounds, with a history of a prior myocardial infarction, was hospitalized with fatigue, peripheral edema and difficulty in breathing. […] Diuretic therapy effected by administering IV bolus doses of 150 mg furosemide every 12 hours was started. Their body weight measurement after 48 hours of furosemide treatment was 172 pounds.
The patient was continued on furosemide and a 15% solution of purified poloxamer 188 in citrate buffered saline was administered at a dose of 250 mg/kg as an IV infusion over a period of 1 hour. Twenty-four hours later, their body weight was 168 pounds.

For `NS(=O)(=O)c1cc(C(=O)O)c(NCc2ccco2)cc1Cl` [furosemide], the body weight (after 48 hours of furosemide 150 mg IV bolus every 12 hours, 180 pounds at admission) was 172 pounds and the ejection fraction (after 48 hours of furosemide alone, 30% at admission) was 29%.
